Patent US11351185B2, “Use of isovalerylspiramycins as anti-cancer agents to inhibit metastasis” (priority 2020, dated 2022)
Several values for one entry are separate records, joined by “and”; a condition that tells them apart may be missing. Equal entries are not always repeated. Entries after “also recorded” stand apart in the source; their conditions may differ.

Assays:
[1] = tested on: JNK2, POL1, TIF1A; test: Western blot of JNK2 phosphorylation, POL1 and TIF1A; assay type: cell-based; conditions: LN229 cells
Method: (§1) SELH is localized in the nucleolus, which is a sensor of oxidative stress. Yang et al., Nature communications 7: 13599 (2016); Novoselov et al., J. Biol. Chem. 282: 11960 (2007). […] JNK2 activation by oxidative stress inactivated RNA polymerase I (POL1) transcription factor TIF1A in the nucleoli to down-regulate rRNA synthesis. Mayer et al., Genes Dev. 19: 933 (2005). To investigate whether the ribosomal biogenesis was disrupted by ISP I, pre-rRNA transcription was evaluated using real-time RT-PCR analysis in LN229 cells. […] To examine the mechanisms by which ISP I disrupts POL1 transcription, the inventors initially evaluated JNK2 activity and the overall state of the transcription machinery in ISP I-treated LN229 cells.
Western blotting was performed to detect the protein expression level of SELH, NRF2 and γH2AX regulated by ISP I. The cells were lysed by RIPA buffer from ThermoFisher Scientific, and the concentration was measured using DC Protein Assay, a Bio-Rad product. Equal amounts of protein of each sample were loaded for gel electrophoresis and were transferred to nitrocellulose membrane, blocked and incubated overnight at 4° C. with primary antibodies. Then the membranes were washed with TBST (3 times, 10 min each). Exposure, imaging, and data analysis were done using a KwikQuant Imager system, a product of Kindle Biosciences (Greenwich, Conn. USA). […]

[2] = tested on: 786-O and RCC4 cells; test: Cell-cycle analysis by flow cytometry, RCC cells; assay type: cell-based
Method: (§2) To confirm the cytotoxic effect observed in the glioblastoma cell lines, the inventors assessed ISP I's effect on renal cell carcinoma (RCC) cell lines (ACHN, UM-RC-2, RCC4 and 786-0). Cell viability was assessed similarly via CKK8 analysis. […] (FIG. 4C, D).
For monitoring cell-cycle arrest of ISP I-treated cells, Click-iT EdU Flow Cytometry Assay Kits were used, a product of ThermoFisher Scientific. Cells were co-cultured with EdU at a concentration of 10 μM for 1 hour. After fixation and permeabilization, EdU-positive cells were labeled with Alexa Fluor 647 fluorescein. DAPI also was used for measuring total DNA content to identify differences in cell cycle phases. Data were collected by means of a BD LSRFortessa flow cytometer using FlowJo software. Cells that are positive with EdU and DAPI were in S-Phase of the cell cycle.

[3] = tested on: renal cell carcinoma (RCC) cell lines ACHN, UM-RC-2, RCC4 and 786-O; test: CCK8 cell viability assay, renal cell carcinoma cell lines; assay type: cell-based; conditions: 48 hours
Method: as §2
Cell viability was measured by Cell Counting Kit-8 (CCK-8, Dojindo Molecular Technologies, Tokyo, Japan). Cells were seeded in 96-well plates at a density of 3×10^3 cells/well and cultured for 24 hours before treatment with ISP I at different concentration. After treatment for a gradient ISP I concentration from 0 to 20 μg/ml for 48 hours, while control groups were only treated in PBS solution, 10 μl of CCK-8 solution were added to each well and cells were incubated for an additional 2 hours. The absorbance in each well at a wavelength of OD450 was detected by the Synergy H1 microplate reader, a product of BioTek (Winooski, Vt. USA).

[4] = tested on: POL1 occupancy on rDNA; test: Chromatin immunoprecipitation (CHIP) assay; assay type: cell-based; conditions: LN229 cells
Method: as §1
ChIP assays were performed using a SimpleCHIP Enzymatic Chromatin IP Kit (Magnetic beads) following the manufacturer's instructions (Cell Signaling Technology; catalog 9003). Cross-linked protein-DNA complexes were precipitated by incubating with rabbit anti-POL1A (CST; 24799s) or rabbit IgG (negative control) overnight and then with magnetic beads for 2 hours. Purified DNA fragments, […], were analyzed quantitatively by real-time PCR with primers against the rDNA promoter and gene body, following the standard-curve method. The standard curves were created by serial dilution of 2% input chromatin DNA. […]

[5] = biological target: T1, SELH (Sec44→Cys44) synthesized in bacteria (Homo sapiens, UniProt Q8IZQ5, U44C); test: Surface plasmon resonance (SPR) assay, SELH; assay type: binding; conditions: 25° C.
T1 construct: made in house
Source text: Next, the inventors used a thermo-stability assay to confirm SELH was targeted by ISP I in LN229 and 786-O cell lines. The principle of the assay is based on altered protein thermal stabilization/destabilization due to ligand binding in living cells. […] (FIG. 5B and FIG. 6A). To verify further the specificity of ISP I's targeting of SELH, the inventors designed a surface plasmon resonance assay to assess the interaction of ISP I with SELH synthesized in bacteria.
The affinities constant (KD) and kinetics (ka and kd) of ISP I binding to SELH (Sec44→Cys44) were assayed using Biacore 8K (GE Healthcare, Sweden), all at 25° C. […] Coupling conditions were determined by protein isoelectric points. […]
To determine the binding affinity between ISP I and SELH (Sec44→Cys44), a series of ISP I dilutions was analyzed by single-cycle kinetics. […] The ISP I at various gradient concentrations and one zero concentration (running buffer) flowed over the immobilized SELH, with 120 s for binding, followed by disassociation for 120 s, and the obtained response units (RUs) were recorded. The RU values were collected, and the binding affinity data were calculated by kinetic models (1:1 interaction) within Biacore 8K Evaluation Software. The equilibrium dissociation constant (KD) was calculated to evaluate the ability of ISP I to interact with SELH.

T1 sequence (Q8IZQ5 with tags, fused parts or gaps U44C): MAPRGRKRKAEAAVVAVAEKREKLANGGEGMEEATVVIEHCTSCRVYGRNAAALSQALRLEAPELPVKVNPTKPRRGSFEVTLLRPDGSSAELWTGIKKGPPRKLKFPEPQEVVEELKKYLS

## COC1C(O)CC(=O)OC(C)CC=CC=CC(OC2CCC(N(C)C)C(C)O2)C(C)CC(CC=O)C1OC1OC(C)C(OC2CC(C)(O)C(OC(=O)CC(C)C)C(C)O2)C(N(C)C)C1O (stereo not shown) [ISP I, 4″-isolvalerylspiramycin I]
[1]
  JNK phosphorylation (western blot): increased JNK2 phosphorylation; also recorded: JNK1 phosphorylation increased
  POL1 and TIF1A expression (western blot): slightly reducing POL1 and TIF1A expression in a dose-dependent manner; also recorded: expression of POL1 and TIF1A slightly decreased
[2]
  cell distribution in cell-cycle phases: clear G0/G1 arrest; also recorded: induced cell-cycle arrest in the G0/G1 phase
[3]
  cytotoxic effect on RCC cell lines: demonstrated a cytotoxic effect
[3]; ACHN, UM-RC-2, RCC4, 786-O
  most / least sensitive RCC cell line to cytotoxic effect: ACHN appeared to be the most sensitive and 786-O demonstrated to be the least sensitive
[4]
  POL1 recruitment / occupancy on rDNA (CHIP): reduces the occupancy of POL1 on rNDA; also recorded: significantly reduced POL1 recruitment to the promoter coding regions of rDNA
[5]
  binding to SELH (SPR): tightly binds to SELH
